From US9724318B2, “Compositions for improving mental concentration” (priority 2001, dated 2017)

Assay: acute toxic test using a mouse, oral administration
Assay type: in vivo
Conditions: oral administration at 5 g/kg
Description: The theanine used in the present invention has high safety. […] Also, especially L-theanine is known as a main component of umami (tastiness) of the green tea, and is also used as a food additive giving umami, without the limitation of its added amount under the regulation for food hygiene. Moreover, contrary to the conventional drugs, since there is no adverse action by theanine at all, the mind-concentration is safely and effectively achieved according to the composition of the present invention, whereby working efficiency, learning efficiency or the like, or sports performance can be improved.

CCNC(=O)CC[C@H](N)C(=O)O [theanine, γ-glutamyl ethylamide]
abnormalities in the general states, weight and the like: no abnormalities
cases of death in acute toxic test: no cases of death
